From PMC10108392, “Rimonabant-Based Compounds Bearing Hydrophobic Amino Acid Derivatives as Cannabinoid Receptor Subtype 1 Ligands” (ACS Medicinal Chemistry Letters, 2023)

Molecular target: T1, CB1R (Rattus norvegicus, UniProt P20272)
T1 construct: Crude membrane fractions were prepared from the brain; from tissue; host or cells: Wistar rat whole brain, crude membrane fraction
Assay: [3H]WIN55,212-2 radioligand competition binding assay in rat brain membrane homogenate
Conditions: read-out: Ki [3H]WIN55,212-2 binding, 5 nM [3H]WIN55,212-2, ± SEM, n.b. = no binding of ligands was observed
Method: Our novel chemical compounds were tested in vitro for their binding ability, efficacy, and potency on CB1R in rat brain membrane homogenate (Table 2 and SI, Figure S1). CB1Rs are the most abundant G-protein coupled receptors in the rodent and mammalian brain; therefore, this is an appropriate model to characterize our ligands in a more physiological system.
In Vitro Biological Assays
Preparation of Brain Membrane Homogenates
Wistar rats were locally bred and handled according to the EU Directive 2010/63/EU and to the Regulations on Animal Protection (40/2013. (II. 14.) Korm. r.) of Hungary. Crude membrane fractions were prepared from the brain. Brains were quickly removed from the euthanized rats and directly put in an ice-cold 50 mM Tris-HCl buffer (pH 7.4). The collected tissue was then homogenized in 30 volumes (v/w) of an ice-cold buffer with a Braun Teflon-glass homogenizer at the highest rpm. The homogenate was centrifuged at 20,000 × g for 25 min, and the resulting pellet was suspended in the same volume of a cold buffer followed by incubation at 37 °C for 30 min to remove endogenous ligands. Centrifugation was then repeated. The final pellets were taken up in five volumes of a 50 mM Tris-HCl (pH 7.4) buffer containing 0.32 M sucrose and stored at -80 °C. Prior to the experiment, aliquots were thawed and centrifuged at 20,000 ×g for 25 min and then they were resuspended in 50 mM Tris-HCl (pH 7.4), homogenized with a Douncer, followed by the determination of the protein concentration by the method of Bradford. The membrane suspensions were immediately used either in radioligand binding experiments or in [35S]GTPγS functional assays.
Radioligand Competition Binding Assay
Binding experiments were performed at 30 °C for 60 min in a 50 mM Tris-HCl binding buffer (pH 7.4) containing 2.5 mM of EGTA, 5 mM of MgCl2 and 0.5 mg/mL of fatty acid-free BSA in plastic tubes in a total assay volume of 1 mL that contained 0.3-0.5 mg/mL of a membrane protein. Competition binding […]
ligands. […] The incubation […]
was terminated by diluting the samples with an ice-cold wash buffer (50 mM of Tris-HCl, 2.5 mM of EGTA, 5 mM of MgCl2, 0.5% fatty acid free BSA, pH 7.4), followed by repeated washing and rapid filtration through Whatman GF/B glass fiber filters (Whatman Ltd., Maidstone, UK) pre-soaked with 0.1% polyethyleneimine (30 min before the filtration). Filtration was performed with a 24-well Brandel Cell Harvester (Gaithersburg, MD, USA). Filters were air-dried and immersed into Ultima Gold MV scintillation cocktail, and then radioactivity was measured with a TRI-CARB 2100TR liquid scintillation analyzer (Packard, Perkin Elmer, Waltham, MA, USA). […]
The results of the competition binding studies are reported as means ± S.E.M. of at least three independent experiments each performed in duplicate. In competition binding studies, the inhibitory constants (Ki) were calculated from the inflection points of the displacement curves using non-linear least-square curve fitting and the Cheng-Prusoff equation, Ki= […]/(1 + [ligand]/Kd). […]

T1 sequence (P20272 whole entry): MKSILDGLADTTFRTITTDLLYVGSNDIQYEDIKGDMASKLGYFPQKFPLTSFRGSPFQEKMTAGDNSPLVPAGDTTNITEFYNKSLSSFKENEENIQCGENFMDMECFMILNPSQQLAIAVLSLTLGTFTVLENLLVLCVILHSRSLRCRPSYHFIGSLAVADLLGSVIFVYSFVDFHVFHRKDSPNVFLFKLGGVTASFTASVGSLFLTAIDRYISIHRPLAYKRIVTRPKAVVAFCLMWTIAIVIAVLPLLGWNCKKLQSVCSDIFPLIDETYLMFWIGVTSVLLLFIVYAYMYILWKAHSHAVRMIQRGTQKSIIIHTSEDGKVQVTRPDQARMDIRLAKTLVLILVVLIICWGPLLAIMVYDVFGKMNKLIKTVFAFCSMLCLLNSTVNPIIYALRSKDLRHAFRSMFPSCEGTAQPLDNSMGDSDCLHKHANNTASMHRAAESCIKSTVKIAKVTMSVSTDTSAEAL

CNC(=O)[C@@H](NC(=O)c1nn(-c2ccc(Cl)cc2)c(-n2cccc2)c1C)C(C)(C)C [Compound 34, RS2691-tLeu-NHCH3]
Ki: 6.9 ± 1.8 nM
